Laboratory results: patent US20230382916A1, “HETEROARYL HETEROCYCLIC COMPOUNDS AND USES THEREOF” (HUTCHISON MEDIPHARMA LIMITED, priority 2020, published 2023)
pIC50: −log10 of the molar value. One block for each molecule: values may come before it.

What was measured:
[1] = Stability test in liver microsomes (rat); assay type: in vitro ADME; conditions: rat liver microsomes 0.5 mg/mL, 1 μM compound
Method: (§1) Both male CD-1 mouse pooled liver microsomes and male SD rat pooled liver microsomes were purchased from BioreclamationIVT Corporation, USA.
(§2) The test compound stock solution was diluted with an organic solvent (usually a mixture of acetonitrile, methanol and water with various ratios, depending on the solubility of the compound, if necessary, 1 N hydrochloric acid or 1 N sodium hydroxide would be added to facilitate solubilization) to the 0.1 mM (the final concentration of the compound in the reaction system was 1 μM) and the concentration percentage of the organic solvents in the incubation system no more than 1% (wherein the percentage of DMSO was required to be no more than 0.1%). An appropriate amount of 100 mM NADP, 500 mM G-6-P and 100 Unit/mL G-6-PDH were mixed and diluted with ultrapure water (the final system contains 1 mM NADP, 5 mM G-6-P and 1 Unit/mL G-6-PDH), pre-incubated in a 37° C. water bath for 10 minutes and then placed on ice for use as a NADPH regeneration solution. 20 mg/mL liver microsomes solution and 200 mM phosphate buffer were mixed, and diluted with ultrapure water to give a liver microsomes solution containing 2.5 mg/mL liver microsomes (the final concentration of the reaction system is 0.5 mg/mL) and 50 mM phosphate buffer. The diluted liver microsomes solution was mixed with 0.1 mM compound solution, a mixture of 100 mM EDTA, 300 mM MgCl2 solution, 200 mM phosphate buffer (the final system was 3 mM MgCl2, 1 mM EDTA and 50 mM phosphate buffer) and water in an appropriate volume was added. Finally, the NADPH regeneration solution was added, then the reaction solution was placed in a 37° C. water bath to start the reaction (the reaction time was 30 minutes), and the reaction was stopped by adding the ice-cold acetonitrile reaction stopping solution containing the internal standard. The 0-minute sample was not incubated in a 37° C. water bath, and its difference from the 30-minute sample further lies in that the ice-cold acetonitrile reaction stopping solution containing the internal standard was added first, and then the NADPH regeneration solution was added. The sample added with the reaction stopping internal standard solution was vortexed and mixed well, and then centrifuged at 4400 rpm for 10 minutes. The supernatant was taken and diluted ten times with 50% methanol for LC-MS/MS analysis.
(§3) LC-MS/MS was used to determine the concentration of the compound in the sample. The percentage of the remaining compound after 30 minutes of incubation comparing with that in the 0-minute sample was calculated using the peak area ratio of the compound to the internal standard as an indicator, to evaluate the metabolic stability of the compound.

BTK recombinant protein = BTK recombinant protein (Homo sapiens (Human), UniProt Q06187); experiment: Determination of biochemical BTK (Z'-LYTE kinase assay); conditions: 32 μM ATP
Chain of BTK recombinant protein (Q06187 whole entry): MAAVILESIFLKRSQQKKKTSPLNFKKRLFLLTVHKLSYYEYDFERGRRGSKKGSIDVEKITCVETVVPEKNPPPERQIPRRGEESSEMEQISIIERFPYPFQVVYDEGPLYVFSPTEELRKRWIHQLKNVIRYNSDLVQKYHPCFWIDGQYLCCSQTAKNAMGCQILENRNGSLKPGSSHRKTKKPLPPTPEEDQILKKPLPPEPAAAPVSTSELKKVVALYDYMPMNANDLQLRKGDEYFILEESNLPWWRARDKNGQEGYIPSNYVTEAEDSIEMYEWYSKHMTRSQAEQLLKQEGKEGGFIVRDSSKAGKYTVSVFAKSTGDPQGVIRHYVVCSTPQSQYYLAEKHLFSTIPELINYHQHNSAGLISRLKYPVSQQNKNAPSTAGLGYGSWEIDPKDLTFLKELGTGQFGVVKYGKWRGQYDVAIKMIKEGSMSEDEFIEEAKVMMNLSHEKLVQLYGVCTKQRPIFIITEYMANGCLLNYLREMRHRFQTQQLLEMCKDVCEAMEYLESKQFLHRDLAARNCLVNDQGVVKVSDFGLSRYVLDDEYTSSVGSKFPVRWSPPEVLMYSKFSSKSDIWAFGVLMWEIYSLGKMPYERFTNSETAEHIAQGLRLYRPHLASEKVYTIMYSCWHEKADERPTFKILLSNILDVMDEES
Source text: BTK recombinant protein: Invitrogen, Cat #PV3363;
Z′-LYTE® kinase test kit-tyrosine 1 peptide: Invitrogen, Cat #PV3190;
Z′-LYTE® biochemical assay employs a fluorescence resonance energy transfer (FRET)-based, coupled-enzyme format and is based on the differential sensitivity of phosphorylated and non-phosphorylated peptides to proteolytic cleavage. Both ends of the short peptide substrate are labeled with two fluorescent groups to form a FRET paired combination. In the primary reaction (the Kinase Reaction), the kinase transfers the γ-phosphate of ATP to a single […] residue on the short peptide substrate. In the secondary reaction (the development reaction), the non-phosphorylated short peptides were recognized and cleaved by a site-specific protease (the development reagent). Phosphorylated short peptides can resist such cleavage. Cleavage of short peptides can disrupt the donor (such as coumarin) and receptor fluorophores (fluorescein) on the short peptides, while the phosphorylated short peptides can maintain FRET. The calculation method of the ratio is as follows, and the ratio of the respective emission signals generated by the donor fluorophores emitted (after excitation at 400 nm) to the receptors is calculated. Emission signal ratio=emitted light by coumarin (445 nm)/emitted light by fluorescein (520 nm). If the FRET short peptide is phosphorylated (such as no kinase inhibitor), the emitted light ratio will remain in a lower level. If the FRET short peptide is non-phosphorylated (such as kinase inhibitor), the emitted light ratio will be in a higher level. In this way, the inhibitory effects of different compound inhibitors on BTK kinase activity would be distinguished.
The experiment was carried out according to the instructions of the Z′-LYTE® kinase test kit-tyrosine 1 peptide. Reagent preparation: 1.33× kinase buffer: 5× kinase buffer was diluted with water to 1.33× kinase buffer; an enzyme solution: the kinase was dissolved in 1.33× kinase buffer with the final working concentration being 3.32 nM; a short peptide solution: a short peptide stock solution (1 mM dissolved in DMSO) was dissolved in 1.33× kinase buffer with the final working concentration being 2 μM; Z′-LYTE Tyr01 phosphorylated short peptide solution, 0.6 μl of stock solution (1 mM dissolved in DMSO) was dissolved in 149.4 μl of 1.33× kinase buffer; an ATP solution: an ATP stock solution (10 mM aqueous solution) was dissolved in 1.33× kinase buffer with the final working concentration being 32 μM; a color-developing solution: color-developing solution B was dissolved in color-developing buffer with the final working concentration being 1× color-developing solution; 4× compound preparation: the compound was diluted in 3-fold gradient concentration to finally obtain 4% DMSO aqueous solution containing different concentrations of the compound, with the final working concentration being 3000, 1000, 333.33, 111.11, 37.04, 12.35, 4.12, 1.37 nM, 8 concentration points in total.
Specific steps of the experiment: In the experiment, there were three control groups, each with 8 replicate wells, which were C1 100% inhibition group (no ATP), C2 0% inhibition group (with ATP), and C3 100% phosphorylation group, respectively. 2.5 μl of serially diluted compound was added to each well of a 384-well plate, with double replicate wells, and 4% DMSO solution was added to wells C1, C2, and C3. After that, except for wells C3, 2.5 μl of BTK enzyme solution was added to each remaining well, which was left to stand at 4° C. for 30 minutes. After that, except for wells C3, 2.5 μl of short peptide solution was added to each well, and 5 μl of phosphorylated short peptide solution was added to each of wells C3. 2.5 μl of 1.33× kinase buffer was added to each of wells C1 and C3, and 2.5 μl of ATP solution was added to each of the remaining wells. The wells were centrifuged transiently, and the plate was shaken at 1000 rpm for 30 seconds to perform transient centrifuge. […]

[2] = Stability test in liver microsomes (mouse); assay type: in vitro ADME; conditions: mouse liver microsomes 0.5 mg/mL, 1 μM compound
Method: as §1, §2, §3

[3] = tested on: rat arthritis model induced by type II collagen; experiment: Rat arthritis model induced by type II collagen (CIA), paw volume; assay type: in vivo; conditions: for inhibition ratio of area under the curve (IRAUC) of paw swelling: Day 13 to Day 19
Method: An appropriate amount of bovine type II collagen (CII, Chondrex (Redmond, WA, USA), Cat #20021) was weighed and dissolved in 0.1 mole of acetic acid (SPGC Sinopharm Chemical Reagent Co., Ltd (Shanghai, P.R. China), Cat #: 10000218.), which was formulated into a solution with a concentration of 6 mg/mL, stirred at 4° C. overnight, and added with an equal volume of Freund's incomplete adjuvant (Sigma-Aldrich. (St. Louis, MO, USA), Cat #: SLBW0366.), fully emulsified to prepare an emulsion with a CII concentration of 3 mg/mL.
Female Lewis rats were purchased from Beijing Vital River Laboratory Animal Technology Co., Ltd. (certificate number 20200928Aazz0619000579, initial body weight of 110-130 grams), and 6 rats were randomly selected as a normal group; and all of the remaining rats were immunized. In the first immunization on day 0, the rats except those in the normal group were anesthetized with isoflurane (Hebei Yipin Pharmaceutical Co., Ltd., Lot: C002170601.), and then disinfected with 75% alcohol, and 0.2 mL of emulsion was injected intradermally at the base of the tail thereof. A second challenge was carried out on day 7, and 0.2 mL of emulsion was intradermally injected using the same method. Once the animals developed symptoms on day 10, the incidence conditions thereof were closely monitored.
After grouping, the normal group was not administered, and the rats in the other groups were administered with the control vehicle, 0.25 mg/kg and 4 mg/kg of the reference GDC-0853, and each dose of compound 1 orally once a day until the end of the experiment.
The paw volume was measured on day 10 after immunization, and the left and right hind paw volumes (V) were measured every day after the paw volume increase was detected.
The arthrosis paw volumes of the left and right hind limbs of each animal were measured, and the average paw volume (APV) was calculated according to the following formula:
Average paw volume APV=(Vleft+Vright)/2
The average arthrosis paw volume of each animal before administration was used as the baseline (or considered […] of inflammation). The averaged paw swelling (APS) of each animal is calculated according to the following formula, wherein, APVd1 is the average paw volume of the animal administered on day 1, and APVdt is the average paw volume of the animal administered on day t:
The averaged paw swelling APSdt=(APVdt−APVd1)
The area under the curve (AUC) of the average paw volume swelling is the area under the curve of the arthrosis score swelling calculated by the trapezoid method, and the calculation formula is:
AUCAPS=½×(APSd1+APSd2)×(d2−d1)+½×(APSd2+APSd3)×(d3−d2)+ . . . +½×(APSdn+APSd(n-1))×(dn−dn-1).
Inhibition ratio IRAUC%=(Mean AUCAPS in the model group−AUCAPS in the drug-treated group)/(Mean AUCAPS in the model group−Mean AUCAPS in the normal group)×100%.

[4] = tested on: anti-IgD antibody-induced B cell activation in mice whole blood; experiment: In vivo efficacy of the inhibitory effect on BTK target: anti-IgD antibody-induced B cell activation in mice whole blood after oral dosing; set-up: species or system mouse; conditions: 20 mg/kg oral single dose, 16 h
Method: Objects: B cells in mice whole blood were induced and activated by the anti-IgD antibody, and the inhibitory effect of the compound of the present invention on B cell activation in vivo was studied, so as to determine the inhibitory effect of the compound of the present invention on the BTK target in vivo.
Methods: C57BL/6 mice (female, 18-20 g, purchased from Shanghai Lingchang Biotechnology Co., Ltd.) were grouped according to Table 1.
The animals of each group were administered, then were placed in CO2 for anesthesia at designated time points, blood samples were taken from […] via retro-orbital bleeding, and heparin was used for anticoagulation; 90 μL of whole blood was taken from mice of each group, and added to a 96 well culture plate, and anti-mouse IgD antibody (BIO-RAD, Cat #MCA4693) was added to each well to a final concentration of […] (respectively for each drug-treated group and anti-IgD antibody-inducted vehicle group); in addition, 90 μL of whole blood of mice in the vehicle group was taken and added to the 96-well culture plate, and PBS (phosphate buffer, GIBCO, Cat #C20012500BT) was added to each well to a final concentration of 0.01 μg/L (namely, the vehicle control group); Each group was mixed well and incubated in a 37° C./5% CO2 incubator for 4 hours. In addition, the blood of mice in the drug-treated group was centrifuged to separate plasma for blood concentration analysis.
B cell activation ratio=percentage of CD69^+CD19^+ double positive B cells/percentage of CD19^+ single positive B cells
Inhibition ratio=(percentage of B cell activation ratio in anti-IgD antibody-induced vehicle group−percentage of B cell activation ratio in drug-treated group)/(percentage of B cell activation ratio in anti-IgD antibody−induced vehicle group-percentage of B cell activation ratio in vehicle control group)×100%
All data are represented by mean±standard error. For the comparison between each drug-treated group and the anti-IgD antibody-induced vehicle group, p value was calculated by Graphpad Prism using one-way ANOVA analysis of variance and Dunnett's test, and for the comparison between each drug-treated group, p value was calculated by using unpaired t test.

SMILES: C[C@H]1CN(C2COC2)C[C@H](C)N1c1ccc(Nc2cc(-c3ccnc(-n4ncn5c6c(cc5c4=O)CC(C)(C)C6)c3CO)cn(C)c2=O)nc1 [Compound 4, 2-(5-((5-((2S,6S)-2,6-dimethyl-4-(oxetan-3-yl)piperazin-1-yl)pyridin-2-yl)amino)-3′-(hydroxymethyl)-1-methyl-6-oxo-1,6-dihydro-[3,4′-bipyridin]-2′-yl)-7,7-dimethyl-7,8-dihydro-2H-cyclopenta[4,5]pyrrolo[1,2-d][1,2,4]triazin-1(6H)-one]
RLM, percentage of the remaining compound after 30 minutes of incubation [1]: 97.4%
pIC50 (BTK recombinant protein): 8.30
MLM, percentage of the remaining compound after 30 minutes of incubation [2]: 90.9%

SMILES: C[C@H]1CNC[C@H](C)N1c1ccc(Nc2cc(-c3ccnc(-n4ccn5c6c(cc5c4=O)CC(C)(C)C6)c3CO)cn(C)c2=O)nc1 [Compound 5, 2-(5-((5-((2S,6S)-2,6-dimethylpiperazin-1-yl)pyridin-2-yl)amino)-3′-(hydroxymethyl)-1-methyl-6-oxo-1,6-dihydro-[3,4′-bipyridin]-2′-yl)-7,7-dimethyl-7,8-dihydro-2H-cyclopenta[4,5]pyrrolo[1,2-a]pyrazin-1(6H)-one]
RLM, percentage of the remaining compound after 30 minutes of incubation [1]: 95.4%
pIC50 (BTK recombinant protein): 8.10
MLM, percentage of the remaining compound after 30 minutes of incubation [2]: 67.5%

RLM, percentage of the remaining compound after 30 minutes of incubation [1]: 81.0%
MLM, percentage of the remaining compound after 30 minutes of incubation [2]: 76.3%
SMILES: C[C@H]1CN(C2COC2)CCN1c1ccc(Nc2cc(-c3ccnc(N4CCn5c(cc6c5CC(C)(C)C6)C4=O)c3CO)cn(C)c2=O)nc1 [GDC-0853, fenebrutinib, reference compound]
effect on paw volume compared with vehicle control group ([3]; 0.25 mg/kg oral QD): no improvement effect
inhibition ratio of area under the curve (IRAUC) of paw swelling ([3]; 0.25 mg/kg oral QD): −6.4%
effect on paw volume compared with vehicle control group ([3]; 4 mg/kg oral QD): significantly reduced
inhibition ratio of area under the curve (IRAUC) of paw swelling ([3]; 4 mg/kg oral QD): 144.7%
Inhibition ratio (%) on B cell activation [4]: 9%
B cell activation ratio (the population of activated B cells in total B cells) ([4]; mean ± standard error): 29.3 ± 6.7
